In patent publication US11147272B2, “Pyridone compounds and agricultural and horticultural fungicides comprising the same as active ingredients” (MITSUI CHEMICALS AGRO, INC., priority 2017, dated 2021):

Key:
Magnaporthe grisea = test: whole plant or invertebrate; format: in vivo; conditions: for Test A control value class: class of control value
Puccinia recondita = test: Test Example E: Brown rust on wheat; format: in vivo; conditions: for Test E control value class: class of control value
Plasmopara viticola = test: Test Example G: Downy mildew on vine; conditions: for Test G control value: 7 to 10 days after inoculation; for Test G control value class: Downy mildew on vine (Neomuscat), 2.5 ml/pot, assessed 7 to 10 days after inoculation
[1] = test system: Colletotrichum orbiculare; test: Test Example H: Anthracnose on cucumber; conditions: for Test H control value: 6 to 10 days after inoculation; for Test H control value class: Anthracnose on cucumber (Sagami Hanjiro), 2.5 ml/pot, assessed 6 to 10 days after inoculation
Phytophthora infestans = test: whole plant or invertebrate; format: in vivo; conditions: for Test F control value class: class of control value
[2] = test system: Blumeria graminis f. sp. hordei; test: Test Example D: Powdery mildew on barley; conditions: for Test D control value class: class of control value
Alternaia brassicicola = test: Test Example C: Alternaria sooty spot on cabbage; format: in vivo; conditions: for Test C control value class: class of control value
Text: Seeds of a test plant (cabbage variety: Shikidori) were planted and cultivated until the cotyledons extended.
<Control Value> Control value=100{1−(n/3)}

Botrytis cinerea = test: Test Example B: Gray mold on tomato; conditions: for Test B control value class: class of control value
[3] = 250 ppm drug solution sprayed on test plant
[4] = 250 ppm drug solution sprayed (2.5 ml/pot), grape Neomuscat
[5] = 250 ppm drug solution sprayed (2.5 ml/pot), cucumber Sagami Hanjiro
[6] = Alternaria sooty spot on cabbage
[7] = Blast on rice, control value class
[8] = Brown rust on wheat, control value class
[9] = Downy mildew on vine, 250 ppm spray
[10] = Anthracnose on cucumber, 250 ppm spray
[11] = Late blight on tomato, control value class
[12] = Powdery mildew on barley, control value class
[13] = Alternaria sooty spot on cabbage, control value class
[14] = Gray mold on tomato, control value class

Row | SMILES | Test A control value (Magnaporthe grisea; [3]) | Test E control value (Puccinia recondita; [3]) | Test G control value (Plasmopara viticola; [4]) | Test H control value [1, 5] | Test F control value (Phytophthora infestans; [3]) | Test D control value [2, 3] | Test C control value (Alternaia brassicicola; [3]) | Test B control value (Botrytis cinerea; [3]) | Test A control value class (Magnaporthe grisea; Blast on rice) | Test E control value class (Puccinia recondita; Brown rust on wheat) | Test G control value class (Plasmopara viticola; 250 ppm spray) | Test H control value class ([1]; 250 ppm spray) | Test F control value class (Phytophthora infestans; Late blight on tomato) | Test D control value class ([2]; Powdery mildew on barley) | Test C control value class (Alternaia brassicicola; [6]) | Test B control value class (Botrytis cinerea; Gray mold on tomato) | also measured
1 | CCCc1cc(Cl)c(=O)n(CC)c1-c1ccc(OC)cc1Br [compound 376] | H (more than 50% control value) | H (more than 50% control value) | H (more than 50% control value) | H (more than 50% control value) | H (more than 50% control value) | H (more than 50% control value) | H (more than 50% control value) | H (more than 50% control value) | – | – | – | – | – | – | – | – | –
2 | CCn1c(-c2c(F)cc(F)cc2F)c(C(C)(O)C(C)(C)C)cc(Cl)c1=O (racemic) [compound 174] | – | – | – | – | – | – | – | – | H (more than 50% control value) | H (more than 50% control value) | L (50% or less control value) | L (50% or less control value) | L (50% or less control value) | H (more than 50% control value) | H (more than 50% control value) | H (more than 50% control value) | –
3 | CCn1c(-c2ccc(F)cc2Cl)c(C2CCCCC2)cc(Cl)c1=O [compound 181] | – | – | – | – | – | – | – | – | H (more than 50% control value) | H (more than 50% control value) | H (more than 50% control value) | H (more than 50% control value) | L (50% or less control value) | H (more than 50% control value) | H (more than 50% control value) | H (more than 50% control value) | –
4 | CCn1c(-c2c(F)cc(F)cc2F)c(C(=O)C(C)(C)C)cc(Cl)c1=O [compound 173] | – | – | – | – | – | – | – | – | L (50% or less control value) | H (more than 50% control value) | L (50% or less control value) | H (more than 50% control value) | L (50% or less control value) | H (more than 50% control value) | H (more than 50% control value) | H (more than 50% control value) | –
5 | CCOC(C)(CC)c1cc(Br)c(=O)n(CC)c1-c1c(F)cc(F)cc1F (centres unmarked) [compound 484] | H (more than 50% control value) | H (more than 50% control value) | H (more than 50% control value) | H (more than 50% control value) | L (50% or less control value) | H (more than 50% control value) | L (50% or less control value) | H (more than 50% control value) | – | – | – | – | – | – | – | – | –
6 | COC(c1cc(Cl)c(=O)n(C)c1-c1c(F)cc(F)cc1F)C(C)C (centres unmarked) [compound 496] | H (more than 50% control value) | H (more than 50% control value) | H (more than 50% control value) | H (more than 50% control value) | L (50% or less control value) | H (more than 50% control value) | H (more than 50% control value) | H (more than 50% control value) | – | – | – | – | – | – | – | – | –
7 | C#CCOc1cccc(F)c1-c1c(CC(C)C)cc(Cl)c(=O)n1CC [compound 102] | – | – | – | – | – | – | – | – | H (more than 50% control value) | H (more than 50% control value) | H (more than 50% control value) | H (more than 50% control value) | L (50% or less control value) | H (more than 50% control value) | H (more than 50% control value) | H (more than 50% control value) | –
8 | CCCc1cc(C)c(=O)n(C)c1-c1ccc(F)cc1Cl [Compound No. 339, 6-(2-chloro-4-fluorophenyl)-1,3-dimethyl-5-propylpyridin-2(1H)-one] | – | – | – | – | – | – | – | – | – | – | – | – | – | – | – | – | pest or weed control at 250 µg/mL (Magnaporthe grisea; Pyricularia oryzae, in Oryza sativa, read-out: Test A control value): > 50%; pest or weed control at 250 µg/mL (Puccinia recondita; Puccinia recondita, topical, Brown rust on wheat, control value class, read-out: Test E control value): > 50%; pest or weed control at 250 ppm (Plasmopara viticola; Plasmopara viticola, topical, 168 h, read-out: Test G control value): > 50%; pest or weed control at 250 ppm ([1]; Colletotrichum orbiculare, in Cucumis sativus, topical, 144 h, read-out: Test H control value): > 50%; pest or weed control at 250 µg/mL (Phytophthora infestans; Phytophthora infestans, in Solanum lycopersicum, topical, read-out: Test F control value): < 50%; pest or weed control at 250 µg/mL ([2]; Blumeria graminis, in Hordeum vulgare, topical, read-out: Test D control value): > 50%; pest or weed control at 250 µg/mL (Alternaia brassicicola; Brassica oleracea, topical, Alternaria sooty spot on cabbage, control value class, read-out: Test C control value): < 50%; pest or weed control at 250 µg/mL (Botrytis cinerea; Botrytis cinerea, in Solanum lycopersicum, topical, read-out: Test B control value): > 50%
9 | CCCC1=C(c2ccc(F)cc2Br)N(C)C(=O)CC1 [compound 341] | – | – | – | – | – | – | – | – | – | – | – | – | – | – | – | – | Test A control value (Magnaporthe grisea; [7]): L (50% or less control value); Test E control value (Puccinia recondita; [8]): L (50% or less control value); Test G control value (Plasmopara viticola; [9]): L (50% or less control value); Test H control value [1, 10]: H (more than 50% control value); Test F control value (Phytophthora infestans; [11]): L (50% or less control value); Test D control value [2, 12]: L (50% or less control value); Test C control value (Alternaia brassicicola; [13]): L (50% or less control value); Test B control value (Botrytis cinerea; [14]): L (50% or less control value)
10 | CCCc1cc(Br)c(=O)n(CC(F)F)c1-c1c(F)cc(OC)cc1F [compound 476] | H (more than 50% control value) | H (more than 50% control value) | H (more than 50% control value) | H (more than 50% control value) | L (50% or less control value) | H (more than 50% control value) | H (more than 50% control value) | H (more than 50% control value) | – | – | – | – | – | – | – | – | –
11 | CCCc1cc(I)c(=O)n(CCC)c1-c1c(F)cc(OC)cc1F [compound 445] | L (50% or less control value) | H (more than 50% control value) | L (50% or less control value) | H (more than 50% control value) | L (50% or less control value) | L (50% or less control value) | H (more than 50% control value) | H (more than 50% control value) | – | – | – | – | – | – | – | – | –
12 | CCCOC(C)(c1cc(Cl)c(=O)n(CC)c1-c1c(F)cc(F)cc1F)C(C)C (centres unmarked) [compound 229] | – | – | – | – | – | – | – | – | – | – | – | – | – | – | – | – | Test A control value (Magnaporthe grisea; [7]): H (more than 50% control value); Test E control value (Puccinia recondita; [8]): H (more than 50% control value); Test G control value (Plasmopara viticola; [9]): H (more than 50% control value); Test H control value [1, 10]: H (more than 50% control value); Test F control value (Phytophthora infestans; [11]): L (50% or less control value); Test D control value [2, 12]: H (more than 50% control value); Test C control value (Alternaia brassicicola; [13]): H (more than 50% control value); Test B control value (Botrytis cinerea; [14]): H (more than 50% control value)
13 | COc1cc(F)c(-c2c(C(C)(C)C)cc(Br)c(=O)n2C)c(F)c1 [compound 82] | – | – | – | – | – | – | – | – | L (50% or less control value) | H (more than 50% control value) | H (more than 50% control value) | H (more than 50% control value) | L (50% or less control value) | L (50% or less control value) | H (more than 50% control value) | H (more than 50% control value) | –
